This note sets out measurements from article PMC10295897, “A Novel MDM2-Binding Chalcone Induces Apoptosis of Oral Squamous Cell Carcinoma” (Biomedicines, 2023).

Where two headings read alike, the source gives them in different places.

A short description of data set [1]: Solubility observed during in vitro testing. The format is physicochemical. The conditions noted are these: in vitro cytotoxicity testing.
A further data set has as its system SCC9 cells. As to the kind of experiment: MTT cell viability assay, SCC9 oral cancer cells. The format is cell-based, human. The settings on record: for IC50: MTT; for SCC9 S.I.: selective index = IC50 HGF / IC50 SCC9; for dose-dependent cytotoxicity: SCC9, MTT. The method, then:
(§1) Human SCC-4, SCC-9, and SCC-25 cells derived from a human oral tongue SCC (squamous cell carcinoma) were obtained from the ATCC (CRL-1624, CRL-1629, and CRL-1628, respectively) and maintained in 1:1 DMEM/F12 (Dulbecco’s modified Eagle medium and Ham’s F12 medium; Gibco (Thermo Fisher, Waltham, MA, USA)) supplemented with 10% (v/v) FBS (fetal bovine serum; Invitrogen, Thermo Fisher, Waltham, MA, USA) and 400 ng/mL hydrocortisone (Sigma-Aldrich Co., St. Louis, MO, USA). Primary normal human gingival fibroblasts were obtained from the ATCC (PCS-201-018; HGF) and maintained in DMEM supplemented with 10% (v/v) FBS and were used in a maximum of six passages. The cells were grown in a humidified environment containing 5% CO2 at 37 °C. For all biological experiments, the compounds and control nutlin 3a were solubilized in 100% DMSO (all Sigma-Aldrich) to a final concentration of 10 mM. Carboplatin stock was prepared in water (Fauldcarbo®; LibbsFarmacêutica, São Paulo, SP, Brazil) and was used as a standard anticancer compound.
(§2) The viability of SCC cell lines, HT-29, HCT-116, HEP2G and primary human fibroblast cells was evaluated using the MTT assay as in [26]. Briefly, the cells were grown in duplicates in 96-well plates (5 × 10^3 cells/well) until confluence. Then, the medium was removed, fresh medium was added, and the cells were returned to the incubator in the presence of different compounds. DMSO at the same concentrations was used as a 100% cell viability control. After 48 h, the cells were incubated with 5 mg/mL MTT reagent (3-(4,5-dimethyl-2-thiazolyl)-2,5-diphenyl-2-H-tetrazolium bromide) (Sigma-Aldrich Co., St. Louis, MO, USA) for 3.5 h. After that, formazan crystals were dissolved in MTT solvent solution (DMSO/methanol 1:1 v/v), and the absorbance at 560 nm was evaluated using an EPOCH microplate spectrophotometer (BioTek Instruments, Winooski, VT, USA) with the background absorbance at 670 nm subtracted. Each of the six compounds was tested at six or seven different concentrations, ranging from 0.3 µM to 200 µM in cancer cell lines (SCC-4, SCC-9 and SCC-25) and 0.3 µM to 200 µM in primary normal human gingival fibroblasts. Controls (carboplatin, nutlin 3a) were tested at six or seven different concentrations ranging from 0.05 µM to 1000 µM in cancer cells and normal cells, depending on the compound.
(§3) The data are presented as means ± SD. IC values for the MTT assays were obtained by nonlinear regression using the […] 5.0 program (Intuitive Software for Science, San Diego, CA, USA) from at least three independent experiments. A dose–response (inhibitor) vs. response curve using the least squares method was used to determine the IC50, SD, and R^2 of the data. The selectivity index was calculated as SI = IC50 of the compound in normal oral fibroblast cells/IC50 of the same compound for each cancer cell line (SCC-4, SCC-9, SCC-25, HCT-116, HT29 and HEP2G), and the mean was calculated when indicated.
Initially, the six chalcones (1a–f) were submitted to the MTT assay to evaluate their cytotoxicity. The assay was performed using the oral cancer cell line SCC9, and the results were analyzed by a non-linear regression curve to determine the value of the half maximal inhibitory concentration (IC50). As controls, known chemotherapeutic agents were used, namely carboplatin, routinely used in the treatment of oral cancer, and doxorubicin, widely used for other types of cancers.
On the technique in general: Tetrazolium assays rely on reduction of a dye to a coloured formazan, in cell work by metabolically active cells.

Data set [2] concerns Oral Tumor Cells (SCC9, SCC25, SCC4). In words: MTT assay, average over oral tumor cells. The format is cell-based, human. The conditions noted are these: for IC50: mean of SCC9, SCC25, SCC4; for Average S.I.: IC50 of normal primary fibroblasts / average IC50 of tumor cells. As to the method:
as §2, §3

Data set [3] deals with Primary Gingival Fibroblast (HGF). In words: MTT cell viability assay, primary normal gingival fibroblasts. It is filed as cell-based, human. The conditions noted are these: 48 h. As to the method:
as §1, §2, §3

A further data set deals with SCC25 cells. In words: MTT cell viability assay, SCC25 cells. The settings on record: for IC50: 48 h, MTT; for SCC25 S.I.: selective index = IC50 HGF / IC50 SCC25. It is filed as cell-based, human. As to the method:
as §1, §2, §3

The test system of another data set is SCC4 cells. In words: MTT cell viability assay, SCC4 cells. The format is cell-based, human. The conditions noted are these: for IC50: 48 h, MTT; for SCC4 S.I.: selective index = IC50 HGF / IC50 SCC4. The method, then:
as §1, §2, §3

For another data set, the system named is HT29 (adenocarcinoma). In words: MTT cell viability assay, HT29. The format is cell-based. As to the method:
as §2, §3

Where [4] appears, read: Homo sapiens, SCC-9, 48 h, SCC9, 48 h, read-out: IC50.
Where [5] appears, read: Homo sapiens, SCC-9, 48 h, 48 h, read-out: SCC9 IC50.

In the case of `Nc1ccccc1C(=O)/C=C/c1cnn(-c2ccccc2)n1` [1a, (E)-1-(2-Aminophenyl)-3-(2-phenyl-2H-1,2,3-triazol-4-yl)prop-2-en-1-one], the melting point (in general, the temperature of the solid-liquid transition) was 128 to 130 °C. Further, the “solubility (in words)” value in data set [1] was “formed highly insoluble well-structured crystals at low concentrations”. In the data set with SCC9 cells (setting [4]), the 50% inhibitory concentration (IC50) (as a rule, the concentration needed to halve the response being measured) is 9.95 µM.

`Nc1ccccc1C(=O)/C=C/c1cn(-c2ccccc2)nn1` [1b, (E)-1-(2-Aminophenyl)-3-(1-phenyl-1H-1,2,3-triazol-4-yl)prop-2-en-1-one]: the melting point is 183 to 185 °C. Also, the “solubility (in words)” value in data set [1] is given as “highly soluble”. Further, in data set [2] (Homo sapiens), the IC50 amounted to 12.6 µM. For the same compound, the “Average S.I.” value in data set [2] was determined as 2.82. The IC50 with SCC9 cells (setting [5]) worked out at 12.7 µM. In addition, the IC50 with SCC9 cells (setting [4]) was 12.7 µM. Further, the “SCC9 S.I.” value in the data set on SCC9 cells amounted to 2.80. The compound also registered an IC50 in data set [3] (Homo sapiens, Fibroblast) of 35.7 µM. For the same compound, the midpoint of inhibition with SCC25 cells (Homo sapiens, SCC-25), the IC50, lay at 12.5 µM. The “SCC25 S.I.” value with SCC25 cells stood at 2.85. The compound further gave an IC50 with SCC4 cells (Homo sapiens, SCC-4) of 12.6 µM. Also, the “SCC4 S.I.” value in the data set with SCC4 cells worked out at 2.83.

Compound `COc1ccc(-n2cc(/C=C/C(=O)c3ccccc3N)nn2)cc1` [1c, (E)-1-(2-Aminophenyl)-3-(1-(4-methoxyphenyl)-1H-1,2,3-triazol-4-yl)prop-2-en-1-one] yielded a melting point of 174 to 176 °C. Also, in data set [1], the “solubility (in words)” value was “formed highly insoluble well-structured crystals at low concentrations”. Besides, in the data set on SCC9 cells (setting [4]), the IC50 came to 9.32 µM.

Turning to `Nc1ccccc1C(=O)/C=C/c1cn(-c2ccc([N+](=O)[O-])cc2)nn1` [1d, (E)-1-(2-Aminophenyl)-3-(1-(4-nitrophenyl)-1H-1,2,3-triazol-4-yl)prop-2-en-1-one], the melting point fell in the range of 253 to 255 °C. The dose-dependent cytotoxicity entry in the data set on SCC9 cells was “all presented dose-dependent cytotoxicity, except”.

As to `CCOC(=O)c1ccc(-n2cc(/C=C/C(=O)c3ccccc3N)nn2)cc1` [1e, Ethyl(E)-4-(4-(3-(2-aminophenyl)-3-oxoprop-1-en-1-yl)-1H-1,2,3-triazol-1-yl)benzoate], the melting point is 220 to 222 °C. Besides, the dose-dependent cytotoxicity entry in the data set with SCC9 cells is listed as “all presented dose-dependent cytotoxicity, except”.

With `N.N.O=C([O-])C1(C(=O)[O-])CCC1.[Pt+2]` [Carboplatin, carboplatin, reference compound], in data set [2], the “Average S.I.” value is 2.03. In addition, the half-inhibitory concentration (IC50) in data set [2] was 165 µM; in the data set with SCC9 cells (48 h, read-out: SCC9 IC50), 156 µM; in the data set with SCC9 cells (SCC9, 48 h, read-out: IC50), 156 µM; in data set [3], 335 µM; in the data set on SCC25 cells, 191 µM; with SCC4 cells it was 148 µM. Further, the “SCC9 S.I.” value with SCC9 cells is reported as 2.15. In addition, the “SCC25 S.I.” value with SCC25 cells was found to be 1.75. In the data set on SCC4 cells, the “SCC4 S.I.” value turned out to be 2.26.

With `COc1cccc2c1C(=O)c1c(O)c3c(c(O)c1C2=O)C[C@@](O)(C(=O)CO)C[C@@H]3O[C@H]1C[C@H](N)[C@H](O)[C@H](C)O1` [Doxorubicin, doxorubicin, reference compound], the IC50 in data set [2] (Homo sapiens) is 1.49 µM; in the data set on SCC9 cells (setting [5]), 2.99 µM; with SCC9 cells (setting [4]) it was 2.99 µM; in data set [3] (Homo sapiens, Fibroblast), 3.47 µM; in the data set with SCC25 cells (Homo sapiens, SCC-25) it was 0.9 µM; in the data set with SCC4 cells (Homo sapiens, SCC-4) it was 0.57 µM. Also, the “Average S.I.” value in data set [2] amounted to 2.34. The “SCC9 S.I.” value with SCC9 cells is 1.16. Moreover, the “SCC25 S.I.” value in the data set on SCC25 cells is recorded as 3.86. Moreover, the “SCC4 S.I.” value in the data set with SCC4 cells turned out to be 6.09.

Consider `COc1ccc(C2=N[C@@H](c3ccc(Cl)cc3)[C@@H](c3ccc(Cl)cc3)N2C(=O)N2CCNC(=O)C2)c(OC(C)C)c1` [nutlin-3a, reference compound], for which the IC50 turned out to be 18 µM in the data set on SCC9 cells (48 h, read-out: SCC9 IC50); 49.1 µM in data set [3]; 6.79 µM in the data set with HT29 (adenocarcinoma) (48 h, MTT). Further, the “SCC9 S.I.” value in the data set on SCC9 cells turned out to be 2.72. The “HT29 S.I.” value in the data set on HT29 (adenocarcinoma) (IC50 HGF / IC50 HT29) is recorded as 7.22.
